From US20080235824A1, “Use of Esterase Genes as Selectable Markers for Transforming Plant Cells” (priority 2006, published 2008)

Tests used:
tomato leaf explants = assay: Survival of tomato leaf explants on regeneration medium with detergents; assay type: cell-based, Lycoperisicon esculentum; conditions: 1% detergent; for Survival of tomato leaf explants on regeneration medium: surviving/total explants
Protocol: Tween 20 was similarly evaluated as a potential selective agent for use in tomato (Lycoperisicon esculentum) transformations by placing tomato leaf explants placed into tissue culture; Tween 20 was added to tomato regeneration (shooting) medium normally used in tomato transformations (Riggs et al., 2001) at a 1% concentration. Each treatment consisted of 40 sterilized leaf explants placed in four tissue culture plates carrying 10 explants each. Survival of the explants was assayed weekly over four weeks on these media.

[1] = system: geranium petiole explants; assay: Survival of geranium petiole explants on regeneration medium with detergents; assay type: cell-based, Pelargonium X hortorum; conditions: for Survival of geranium petiole explants on regeneration medium: surviving/total explants
Protocol: Tween 20, a nonionic, fatty acid ester detergent, was evaluated as a potential selective agent for use in geranium (Pelargonium X hortorum) transformation experiments by placing geranium petiole explants into tissue culture with the addition to Tween 20 to the regeneration (shooting) medium normally used in geranium transformations (Robichon et al., 1995). Tween 20 was added at three concentrations: 1%, 0.1% and 0.01%. Each treatment consisted of 40 sterilized petiole explants placed in four tissue culture plates carrying 10 explants each. Survival of the explants was assayed weekly over four weeks on these media. Potential selective agent Span 20, also a nonionic, fatty acid ester detergent, was similarly evaluated, except that concentrations of 1%, 0.5% and 0.25% were evaluated over a twelve week period of time. The nonionic detergent Triton X-100, which is not a fatty acid ester detergent, was included for comparative purposes.

[2] = system: tobacco cultivar Xanthi leaf explants; assay: Agrobacterium transformation of tobacco with selection on detergent or kanamycin; assay type: cell-based, Nicotiana tabacum; conditions: tobacco Xanthi, pIPG786 nptII, 100 micrograms/ml kanamycin, 235 explants
Description: Transgenic tobacco (Nicotiana tabacum) cultivar “Xanthi” plants were created using the Agrobacterium tumefaciens DNA delivery method [Horsch et al., 1985] using pIPG833. Selection was on 1% or on 0.05% Tween 20 added to both shoot and root regeneration media. As a control for comparative purposes, pIPG786 was used (carrying the nptII gene for kanamycin resistance) for transformation and 100 micrograms/ml kanamycin was used for selection.
Transgenic tobacco (Nicotiana tabacum) cultivar “Xanthi” plants were created using the Agrobacterium tumefaciens DNA delivery method [Horsch et al., 1985] using pIPG833. Selection was on 1% or on 0.05% Span 20 added to both shoot and root regeneration media.
Transgenic tobacco (Nicotiana tabacum) cultivar “Xanthi” plants were created using the Agrobacterium tumefaciens DNA delivery method [Horsch et al., 1985] using pIPG875. Selection was on 1% Span 20 added to the shoot regeneration medium and 0.05% Span 20 added to the root regeneration medium.

[3] = system: tomato cultivar Micro-Tom leaf explants; assay: Agrobacterium transformation of tomato with selection on detergent or kanamycin; assay type: cell-based, Lycopersicon esculentum; conditions: tomato Micro-Tom, pIPG768 nptII, 100 micrograms/ml kanamycin, Exp. 1, 98 explants; for Transformation frequency (%): confirmed by PCR
Description: Transgenic tomato (Lycopersicon esculentum) cultivar “Micro-Tom” plants were created using the Agrobacterium tumefaciens DNA delivery method [Riggs et al., 2001; Sun et al., 2006] using pIPG768. Selection was either on 1% Tween 20 added to both shoot and root regeneration media. As controls for comparative purposes, 100 micrograms/ml kanamycin was used.

[4] = Phenol red lipase/esterase assay with crude plant leaf extracts; assay type: biochemical; conditions: transiently plant-expressed enzyme or positive control
Description: In this Figure, the first tube on the left (labeled “Buffer”) contains phenol red buffer and Tween 20 (the dark red color appears dark in this black and white figure); the second tube to the right (“SL”) has 4 Units of Sigma porcine pancreatic lipase added (the bright yellow color appears light); the third tube to the right (labeled “731”) has a twenty microliter droplet of a crude tomato plant leaf extract from leaves inoculated 4 days earlier with GV2260 carrying “empty” (ie., no lipase gene) expression vector pIPG731 (the dark red color appears dark), and the fourth tube to the right (“768 WI”) has a twenty microliter droplet of crude tomato plant leaf extract from leaves inoculated four days earlier with GV2260 carrying cloned bovine pregastric esterase expressed in pIPG768 (the bright yellow color appears light). Tomato leaf tissue particles may be seen floating in the third and fourth tubes to the right. […] The photo was taken 16 hrs. after start of the assay.
For transient expression assays of bovine PGE, the plant transformation and expression vectors constructed in Example 12 were moved into A. tumefaciens strain GV2260 by either electroporation or bacterial conjugation as described (Kapila et al., 1997). GV2260 carrying pIPG745 or pIPG746 was used for transient expression in tobacco, pepper, tomato, citrus, geranium, and rice plants as described (Kapila et al. 1997; Duan et al., 1999; Wroblewski et al. 2005). Cultures of Agrobacterium harboring the constructs of interest were grown in minimal medium in the presence of acetosyringone to induce the Agrobacterium vir genes. The optical density of the cultures was maintained at 0.008 for pepper and tomato and at 0.25 for citrus, geranium and rice. Strain GV2260 was flooded into healthy, young, fully expanded leaves of vigorous plants into the apoplastic space through open stomata by injection using a tuberculin syringe without a needle, flooding entire leaves. After 3-4 days, two grams of leaf tissue (fresh weight), was ground in liquid nitrogen to a fine powder, and 0.5 ml of ice cold phosphate buffered saline (PBS; 137 mM NaCl, 2.7 mM KCl, 10 mM potassium phosphate, pH 7.4) was added and mixed thoroughly at 4 C. The mixture was mixed on an orbital shaker at 4 C for 30 minutes, and plant debris was pelleted at 10,000×g for 15 minutes and discarded. The supernatants from these crude plant leaf extracts were directly used in lipase/esterase assays.
The second activity assay was a phenol red lipase/esterase assay using tributyrin, olive oil or Tween 20 as substrates as described by Singh et al. (2006), except that liquid medium, rather than solidified agar medium, was used. Twenty microliter droplets of crude plant leaf extracts and the positive control were placed in the tributyrin/phenol red medium containing tributyrin, olive oil or Tween 20 and incubated at 30 C overnight. […] Transient expression of bovine PGE was confirmed in tobacco, pepper, tomato, citrus, geranium, and rice plants.
For transient expression assays, the plant transformation and expression vectors constructed in Example 15 were moved into A. tumefaciens strain GV2260 by electroporation. GV2260 carrying pIPG823 was used for transient expression in tobacco and geranium plants exactly as described in Example 20. The supernatants from crude plant leaf extracts were directly used in phenol red lipase/esterase assays using tributyrin and olive oil as substrates exactly as described in Example 20.

Triton X-100
Survival of tomato leaf explants on regeneration medium (tomato leaf explants; Week 1): 40/40
Survival of tomato leaf explants on regeneration medium (tomato leaf explants; Week 2): 40/40
Survival of tomato leaf explants on regeneration medium (tomato leaf explants; Week 3): 10/40
Survival of tomato leaf explants on regeneration medium (tomato leaf explants; Week 4): 7/40
Killing of tomato explants in tissue culture (in words) (tomato leaf explants; summary of Table 2): both less effective and unpredictable in killing
Survival of geranium petiole explants on regeneration medium ([1]; 0.01% detergent, Week 1): 39/40
Survival of geranium petiole explants on regeneration medium ([1]; 0.01% detergent, Week 2): 39/40
Survival of geranium petiole explants on regeneration medium ([1]; 0.01% detergent, Week 3): 39/40
Survival of geranium petiole explants on regeneration medium ([1]; 0.01% detergent, Week 4): 14/40
Survival of geranium petiole explants on regeneration medium ([1]; 0.1% detergent, Week 1): 40/40
Survival of geranium petiole explants on regeneration medium ([1]; 0.1% detergent, Week 2): 40/40
Survival of geranium petiole explants on regeneration medium ([1]; 0.1% detergent, Week 3): 40/40
Survival of geranium petiole explants on regeneration medium ([1]; 0.1% detergent, Week 4): 9/40
Survival of geranium petiole explants on regeneration medium ([1]; 1% detergent, Week 1): 39/40
Survival of geranium petiole explants on regeneration medium ([1]; 1% detergent, Week 2): 39/40
Survival of geranium petiole explants on regeneration medium ([1]; 1% detergent, Week 3): 37/40
Survival of geranium petiole explants on regeneration medium ([1]; 1% detergent, Week 4): 19/40
Killing of geranium explants in tissue culture (in words) ([1]; summary of Table 1): much less efficient and much more variable in killing

NC[C@H]1O[C@H](O[C@H]2[C@H](O)[C@@H](O[C@H]3O[C@H](CO)[C@@H](O)[C@H](N)[C@H]3O)[C@H](N)C[C@@H]2N)[C@H](O)[C@@H](O)[C@@H]1O [kanamycin, reference compound]
No. of independent calli forming shoots [2]: 55
No. of rooted shoots [2]: 55
Transformation frequency (%) ([2]; confirmed by PCR): 19%
No. of independent calli forming shoots [3]: 40
No. of rooted shoots [3]: 40
Transformation frequency (%) [3]: 1%
Transformation frequency (%) ([3]; listed as Kanamycin): 1%

B1: bovine PGE: bovine pregastric esterase, cloned from calf salivary glands and expressed in plants (protein)
chain: MWWLLVTVCFIHMSGNAFCFLGKIAKNPEASMNVSQMISYWGYPSEMHKVITADGYILQVYRIPHGKNNANHLGQRPVVFLQHGLLGSATNWISNLPKNSLGFLLADAGYDVWLGNSRGNTWAQEHLYYSPDSPEFWAFSFDEMAEYDLPSTIDFILRRTGQKKLHYVGHSQGTTIGFIAFSTNPTLAEKIKVFYALAPVATVKYTKSLFNKLALIPHFLFKIIFGDKMFYPHTFLEQFLGVEMCSRETLDVLCKNALFAITGVDNKNFNMSRLDVYIAHNPAGTSVQNTLHWRQAVKSGKFQAFDWGAPYQNLMHYHQPTPPIYNLTAMNVPIAVWSADNDLLADPQDVDLLLSKLSNLIYHKEIPNYNHLDFIWAMDAPQEVYNEIVSLMAEDKKEL
modifications: Bovine pregastric esterase cloned by IPG, translation product, with native leader and two amino acids added to form an ER retention signal sequence
notes: bovine pregastric esterase, cloned from calf salivary glands and expressed in plants
Substrates utilized in phenol red lipase/esterase assay [4]: utilized all three substrates: tributyrin, olive oil and Tween 20

B2: nematode triglyceride lipase-cholesterol esterase: C. elegans triglyceride lipase-cholesterol esterase expressed in plants (protein)
chain: MKSLLLLFLLFLHTLCENVTTPNSEEDTDMTATPSTITPLLSTAQNPSLPKTSKLPLALKTPVPTFPFSSLATSDWLSSMPTIQTLLPPPLPLTTLEVPENENFGFTSLAPLWTLPTQPPAWSPMLDSPIKPIQNSMFPTFPTMPTLPTLPTLAPFTFPTLPPPTTMKPLNITIDPEALMDVPEIITHWGYPVETHKVVTVDGYILTLHRIPHSKNETSKSASKTPKPVVFLQHGLLCTSSIWLLNLPRQSAGYIFADQGYDVWLGNMRGNTYSKEHTRMTSADRRFWKFSWEEMARYDLPAMINYALKTTKRQNLYYVGHSQGALTMFAKMSEDPEMSKKIRKFFAMAPVARMSHVKGLFQNLGQIYEQYNLVYQVFGDGEFLTNNIFTKLLTDIFCDQAVNNPLCENFIFAVSGPNSNQFNNSRIGIYLAHNPAGTSSRNILHFAQMVKKKRMSRFDHGKDLNLKIYGAPSPPEYDIRKINSSIYLFYSDFDWLANPKDVEGFLIPMLPSKTLKKATKLRDFNHNDFLWGMRARKEIYDKIINTIKLDQRRVKLQNSMERFFERQSRNPTSGLDEETMMRLRNETMNLD
modifications: Caenorhabditis elegans
notes: C. elegans triglyceride lipase-cholesterol esterase expressed in plants
Substrates utilized in phenol red lipase/esterase assay [4]: utilized tributyrin and olive oil
